Our source for the IC50 values is US8748418B2, “1,4-oxazepines as BACE1 and/or BACE2 inhibitors” (Hoffmann-La Roche Inc., priority 2011, dated 2014).

In one test the target is BACE2 (Homo sapiens (Human), UniProt Q9Y5Z0). The test can be described thus: Immunofluorescence Resonance Energy Transfer (FRET) assay for BACE2 inhibition. The format is biochemical. The settings on record: TMEM27-based peptide substrate 5 μM, pH 4.5. Here is the method:
Immunofluorescence Resonance Energy Transfer (FRET) Assay for BACE2 Inhibition:
BACE2 enzyme ectodomain (derived from plasmid “pET17b-T7-hu proBACE2”) was prepared as described in Ostermann et al., “Crystal Structure of Human BACE2 in Complex with a Hydroxyethylamine Transition-state Inhibitor”, Journal of Molecular Biology 2006, 355, 249-261. The pro-enzyme was stored at 4° C. at a concentration of 70 μg/ml.
The FRET assay was performed essentially as described in Grüninger-Leitch et al., Journal of Biological Chemistry (2002) 277(7) 4687-93 (“Substrate and inhibitor profile of BACE (beta-secretase) and comparison with other mammalian aspartic proteases”). In summary, a peptide is designed that is cleaved by the protease. The peptide is labelled with dabcyl at the N terminus and Lucifer Yellow at the C-terminus, such that for an intact peptide the Lucifer Yellow fluorescence is quenched by the dabcyl. When the peptide is cut by BACE2, the quenching is removed and a fluorescent signal is generated.
The assay was performed as described in Grueninger et al. 2002 at pH 4.5 using a substrate concentration of 5 μM. A FRET peptide based on the TMEM27 sequence was devised. dabcyl-[…]-LucY (SEQ ID NO: 1).
The assay readout is the initial rate of change of fluorescence intensity giving a relative measure of BACE2 activity. Small values correspond to high inhibition and larger values to low inhibition. […] IC50 values were determined using these assay values generated for a range of inhibitor concentrations and the curve fitting software XLfit (IDBS) using the Sigmoidal Dose-Response Model.

A further test deals with BACE1 (Homo sapiens (Human), UniProt P56817). Briefly: Cellular Aβ-lowering assay (Aβ40 ELISA in HEK293 cells expressing human APP695). The format is cell-based. The settings on record: HEK293 cells stably transfected with human APP wt (APP695), Aβ40 in supernatant after 18-20 hrs. How it is done:
Cellular Aβ-Lowering Assay:
Human HEK293 cells which are stably transfected with a vector expressing a cDNA of the human APP wt gene (APP695) were used to assess the potency of the compounds in a cellular assay. The cells were seeded in 96-well microtiter plates in cell culture medium (Iscove, plus 10% (v/v) fetal bovine serum, glutamine, penicillin/streptomycin) to about 80% confluence and the compounds were added at a 10× concentration in 1/10 volume of medium without FCS containing 8% DMSO (final concentration of DMSO was kept at 0.8% v/v). After 18-20 hrs incubation at 37° C. and 5% CO2 in a humidified incubator the culture supernatant was harvested for the determination of Aβ40 concentrations. 96 well ELISA plates (e.g., Nunc MaxiSorb) were coated with monoclonal antibody which specifically recognize the C-terminal end of Aβ40 (Brockhaus et al., NeuroReport 9, 1481-1486; 1998). After blocking of non-specific binding sites with e.g. 1% BSA and washing, the culture supernatants were added in suitable dilutions together with a horseradish peroxidase-coupled Aβ detection antibody (e.g., antibody 4G8, Senetek, Maryland Heights, Mo.) and incubated for 5 to 7 hrs. Subsequently the wells of the microtiter plate were washed extensively with Tris-buffered saline containing 0.05% Tween 20 and the assay was developed with tetramethylbenzidine/H2O2 in citric acid buffer. After stopping the reaction with one volume 1NH2SO4 the reaction was measured in an ELISA reader at 450 nm wavelength. The concentrations of Aβ in the culture supernatants were calculated from a standard curve obtained with known amounts of pure Aβ peptide.

Sequence of BACE2 (Q9Y5Z0 63-473): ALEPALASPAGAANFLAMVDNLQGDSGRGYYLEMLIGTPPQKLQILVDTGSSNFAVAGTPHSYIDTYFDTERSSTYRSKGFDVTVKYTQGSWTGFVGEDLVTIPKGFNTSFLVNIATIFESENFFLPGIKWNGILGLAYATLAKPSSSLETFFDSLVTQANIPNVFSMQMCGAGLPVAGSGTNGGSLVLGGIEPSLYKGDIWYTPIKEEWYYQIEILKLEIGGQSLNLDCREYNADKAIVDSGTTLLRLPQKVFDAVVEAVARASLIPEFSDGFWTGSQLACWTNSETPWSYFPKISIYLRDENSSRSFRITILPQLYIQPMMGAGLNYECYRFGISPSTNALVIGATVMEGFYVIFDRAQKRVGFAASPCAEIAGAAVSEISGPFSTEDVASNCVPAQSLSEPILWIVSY
Sequence of BACE1 (P56817 46-501): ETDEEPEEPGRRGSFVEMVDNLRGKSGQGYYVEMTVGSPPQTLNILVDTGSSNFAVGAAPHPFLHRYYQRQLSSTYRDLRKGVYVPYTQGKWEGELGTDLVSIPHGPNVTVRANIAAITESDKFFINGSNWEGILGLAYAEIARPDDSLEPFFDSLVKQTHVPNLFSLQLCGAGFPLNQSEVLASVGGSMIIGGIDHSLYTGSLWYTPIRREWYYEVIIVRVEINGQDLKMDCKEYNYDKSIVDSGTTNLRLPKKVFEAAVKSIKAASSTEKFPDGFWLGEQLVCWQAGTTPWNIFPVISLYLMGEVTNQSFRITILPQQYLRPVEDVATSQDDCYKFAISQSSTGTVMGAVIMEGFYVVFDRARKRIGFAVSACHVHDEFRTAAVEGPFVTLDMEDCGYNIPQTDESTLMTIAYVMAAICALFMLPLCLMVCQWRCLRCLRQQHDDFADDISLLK

As to `CC1(C)OCC(N)=N[C@](C)(c2cc(Nc3ccc(Cl)nc3)ccc2F)C1(F)F` [Example 22, (R)-5-[5-(6-Chloro-pyridin-3-ylamino)-2-fluoro-phenyl]-6,6-difluoro-5,7,7-trimethyl-2,5,6,7-tetrahydro-[1,4]oxazepin-3-ylamine], the IC50 at BACE2 was determined as 1770 nM; at BACE1 it was 370 nM.

Turning to `C[C@]1(c2cc(NC3CCOCC3)ccc2F)N=C(N)COC[C@@H]1F` [Example 5, (5R,6R)-6-Fluoro-5-[2-fluoro-5-(tetrahydro-pyran-4-ylamino)-phenyl]-5-methyl-2,5,6,7-tetrahydro-[1,4]oxazepin-3-ylamine], the IC50 against BACE2 stood at 1480 nM; against BACE1 it was 2400 nM.

For the molecule `CC1(C)OCC(N)=N[C@](C)(c2cc(NC3CCCc4cc(C#N)cnc43)ccc2F)C1(F)F` (stereo partly drawn) [Example 16, 8-[3-((R)-3-Amino-6,6-difluoro-5,7,7-trimethyl-2,5,6,7-tetrahydro-[1,4]oxazepin-5-yl)-4-fluoro-phenylamino]-5,6,7,8-tetrahydro-quinoline-3-carbonitrile], the IC50 at BACE2 was 133 nM; at BACE1, 120 nM.

In the case of `CC1(C)OCC(N)=N[C@](C)(c2cc(N[C@@H]3CCc4cc(C#N)cnc43)ccc2F)C1(F)F` [Example 13, (R)-7-[3-((R)-3-Amino-6,6-difluoro-5,7,7-trimethyl-2,5,6,7-tetrahydro-[1,4]oxazepin-5-yl)-4-fluoro-phenylamino]-6,7-dihydro-5H-[1]pyrindine-3-carbonitrile], the IC50 was determined as 95 nM against BACE2 and 310 nM on BACE1.

With `CC1(C)OCC(N)=N[C@](C)(c2cc(NC3COc4cc(Cl)cnc43)ccc2F)C1(F)F` (stereo partly drawn) [Example 15, [3-((R)-3-Amino-6,6-difluoro-5,7,7-trimethyl-2,5,6,7-tetrahydro-[1,4]oxazepin-5-yl)-4-fluoro-phenyl]-(6-chloro-2,3-dihydro-furo[3,2-b]pyridin-3-yl)-amine], the IC50 on BACE2 worked out at 58 nM; at BACE1, 40 nM.

As to `CC1(C)OCC(N)=N[C@](C)(c2cc(Nc3cccnc3)ccc2F)C1(F)F` [Example 24, (R)-6,6-Difluoro-5-[2-fluoro-5-(pyridin-3-ylamino)-phenyl]-5,7,7-trimethyl-2,5,6,7-tetrahydro-[1,4]oxazepin-3-ylamine], the IC50 on BACE2 stood at 940 nM; against BACE1, 1100 nM.

Turning to `CC1(C)OCC(N)=N[C@](C)(c2cc(N[C@@H]3CCc4cc(C#N)cnc43)c(F)cc2F)C1(F)F` [Example 21, (R)-7-[5-((R)-3-Amino-6,6-difluoro-5,7,7-trimethyl-2,5,6,7-tetrahydro-[1,4]oxazepin-5-yl)-2,4-difluoro-phenylamino]-6,7-dihydro-5H-[1]pyrindine-3-carbonitrile], the figures for the IC50 against BACE2 and against BACE1 were 2810 nM and 14000 nM, respectively.

Regarding `C[C@]1(c2cc(Nc3ccc(C#N)cc3)ccc2F)N=C(N)COCC1(F)F` [Example 10, 4-[3-((R)-3-Amino-6,6-difluoro-5-methyl-2,5,6,7-tetrahydro-[1,4]oxazepin-5-yl)-4-fluoro-phenylamino]-benzonitrile], the results for the IC50 against BACE2 and at BACE1 were 910 nM and 700 nM, respectively.

In the case of `C[C@]1(c2cc(NC3CCOC3)ccc2F)N=C(N)COC[C@@H]1F` (stereo partly drawn) [Example 3, (5R,6R)-6-Fluoro-5-[2-fluoro-5-(tetrahydro-furan-3-ylamino)-phenyl]-5-methyl-2,5,6,7-tetrahydro-[1,4]oxazepin-3-ylamine], the IC50 is 72 nM against BACE2 and 580 nM on BACE1.

Regarding `CC1(C)OCC(N)=N[C@](C)(c2cc(NC3CCc4cc(Cl)cnc43)ccc2F)C1(F)F` (stereo partly drawn) [Example 14, [3-((R)-3-Amino-6,6-difluoro-5,7,7-trimethyl-2,5,6,7-tetrahydro-[1,4]oxazepin-5-yl)-4-fluoro-phenyl]-(3-chloro-6,7-dihydro-5H-[1]pyrindin-7-yl)-amine], the IC50 against BACE2 was determined as 28 nM; against BACE1, 71 nM.

Consider `CC1(C)OCC(N)=N[C@](C)(c2cc(NC3COc4cc(Cl)ccc43)ccc2F)C1(F)F` (stereo partly drawn) [Example 17, (R)-5-[5-(6-Chloro-2,3-dihydro-benzofuran-3-ylamino)-2-fluoro-phenyl]-6,6-difluoro-5,7,7-trimethyl-2,5,6,7-tetrahydro-[1,4]oxazepin-3-ylamine], for which the IC50 was 400 nM against BACE2 and 320 nM against BACE1.

As to `C[C@]1(c2cc(N[C@@H]3CCc4cc(Cl)cnc43)ccc2F)N=C(N)COCC1(F)F` [Example 9, [3-((R)-3-Amino-6,6-difluoro-5-methyl-2,5,6,7-tetrahydro-[1,4]oxazepin-5-yl)-4-fluoro-phenyl]-((R)-3-chloro-6,7-dihydro-5H-[1]pyrindin-7-yl)-amine], the IC50 was 650 nM against BACE2 and 2100 nM on BACE1.

Regarding `Cn1ccc(Nc2ccc(F)c([C@@]3(C)N=C(N)COC(C)(C)C3(F)F)c2)n1` [Example 18, (R)-6,6-Difluoro-5-[2-fluoro-5-(1-methyl-1H-pyrazol-3-ylamino)-phenyl]-5,7,7-trimethyl-2,5,6,7-tetrahydro-[1,4]oxazepin-3-ylamine], the IC50 at BACE2 was found to be 530 nM; against BACE1, 240 nM.

Take `CC1(C)OCC(N)=N[C@](C)(c2cc(Nc3ccc(OCC(F)(F)F)nc3)ccc2F)C1(F)F` [Example 28, (R)-6,6-Difluoro-5-{2-fluoro-5-[6-(2,2,2-trifluoro-ethoxy)-pyridin-3-ylamino]-phenyl}-5,7,7-trimethyl-2,5,6,7-tetrahydro-[1,4]oxazepin-3-ylamine]: the figures for the IC50 on BACE2 and at BACE1 were 1490 nM and 12700 nM, respectively.

`CC[C@]1(c2cc(NCc3nn(C(F)F)cc3Cl)ccc2F)N=C(N)COCC1(F)F` [Example 7, (R)-5-{5-[(4-Chloro-1-difluoromethyl-1H-pyrazol-3-ylmethyl)-amino]-2-fluoro-phenyl}-5-ethyl-6,6-difluoro-2,5,6,7-tetrahydro-[1,4]oxazepin-3-ylamine]: the IC50 at BACE2 worked out at 310 nM; on BACE1, 170 nM.

For `C[C@]1(c2cc(NCc3nn(C(F)F)cc3Cl)ccc2F)N=C(N)COCC1(F)F` [Example 6, (R)-5-{5-[(4-Chloro-1-difluoromethyl-1H-pyrazol-3-ylmethyl)-amino]-2-fluoro-phenyl}-6,6-difluoro-5-methyl-2,5,6,7-tetrahydro-[1,4]oxazepin-3-ylamine], the IC50 against BACE2 was 11 nM; against BACE1, 30 nM.

Molecule `Cc1ccc(Nc2ccc(F)c([C@@]3(C)N=C(N)COC(C)(C)C3(F)F)c2)cn1` [Example 27, (R)-6,6-Difluoro-5-[2-fluoro-5-(6-methyl-pyridin-3-ylamino)-phenyl]-5,7,7-trimethyl-2,5,6,7-tetrahydro-[1,4]oxazepin-3-ylamine] displayed an IC50 against BACE1 of 5900 nM.

With `COc1ccc(Nc2ccc(F)c([C@@]3(C)N=C(N)COC(C)(C)C3(F)F)c2)cn1` [Example 25, (R)-6,6-Difluoro-5-[2-fluoro-5-(6-methoxy-pyridin-3-ylamino)-phenyl]-5,7,7-trimethyl-2,5,6,7-tetrahydro-[1,4]oxazepin-3-ylamine], the values for the IC50 on BACE2 and against BACE1 were 1630 nM and 410 nM, respectively.

With `C[C@]1(c2cc(NC3CCc4cc(Cl)cnc43)ccc2F)N=C(N)COC[C@@H]1F` (stereo partly drawn) [Example 1, [3-((5R,6R)-3-Amino-6-fluoro-5-methyl-2,5,6,7-tetrahydro-[1,4]oxazepin-5-yl)-4-fluoro-phenyl]-(3-chloro-6,7-dihydro-5H-[1]pyrindin-7-yl)-amine], the IC50 stood at 24 nM against BACE2 and 70 nM at BACE1.

As for `CC1(C)OCC(N)=N[C@](C)(c2cc(N[C@H]3CCc4cc(C#N)cnc43)c(F)cc2F)C1(F)F` [Example 20, (S)-7-[5-((R)-3-Amino-6,6-difluoro-5,7,7-trimethyl-2,5,6,7-tetrahydro-[1,4]oxazepin-5-yl)-2,4-difluoro-phenylamino]-6,7-dihydro-5H-[1]pyrindine-3-carbonitrile], the IC50 against BACE2 worked out at 170 nM; against BACE1 it was 1900 nM.
